Measured values as given in BindingDB's records for doi:10.1021/jm030354b (Millennium Pharmaceuticals, 2004).

Target: Integrin alpha-IIb/beta-3 (Homo sapiens, UniProt P08514+P05106)
Experiment: Inhibition of platelet aggregation induced by 20 uM adenosine 5-diphosphate (ADP) in citreated human platelet rich plasma (h-PRP)

Chain of Integrin alpha-IIb/beta-3 (P05106 27-788 limits assumed): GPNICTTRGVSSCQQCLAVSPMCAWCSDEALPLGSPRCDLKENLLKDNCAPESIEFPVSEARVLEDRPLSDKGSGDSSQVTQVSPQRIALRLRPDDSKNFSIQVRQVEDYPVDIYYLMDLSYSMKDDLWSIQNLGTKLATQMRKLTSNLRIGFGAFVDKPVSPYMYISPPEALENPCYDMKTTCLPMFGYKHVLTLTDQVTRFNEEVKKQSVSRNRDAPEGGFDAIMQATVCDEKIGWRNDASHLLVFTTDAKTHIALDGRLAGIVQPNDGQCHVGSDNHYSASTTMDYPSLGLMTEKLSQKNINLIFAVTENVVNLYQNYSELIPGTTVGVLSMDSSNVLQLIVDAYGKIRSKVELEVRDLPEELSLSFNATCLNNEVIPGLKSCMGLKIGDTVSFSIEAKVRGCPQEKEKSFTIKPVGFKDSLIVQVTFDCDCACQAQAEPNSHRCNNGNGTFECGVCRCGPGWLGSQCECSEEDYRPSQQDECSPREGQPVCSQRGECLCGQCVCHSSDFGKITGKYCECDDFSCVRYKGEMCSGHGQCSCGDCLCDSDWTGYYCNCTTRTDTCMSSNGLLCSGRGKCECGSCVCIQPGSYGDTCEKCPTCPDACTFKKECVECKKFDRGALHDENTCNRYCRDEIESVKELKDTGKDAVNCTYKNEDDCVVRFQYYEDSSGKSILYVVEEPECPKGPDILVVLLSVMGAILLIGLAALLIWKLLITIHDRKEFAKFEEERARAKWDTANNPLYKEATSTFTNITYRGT
Chain of Integrin alpha-IIb/beta-3 (P08514 32-887 limits assumed): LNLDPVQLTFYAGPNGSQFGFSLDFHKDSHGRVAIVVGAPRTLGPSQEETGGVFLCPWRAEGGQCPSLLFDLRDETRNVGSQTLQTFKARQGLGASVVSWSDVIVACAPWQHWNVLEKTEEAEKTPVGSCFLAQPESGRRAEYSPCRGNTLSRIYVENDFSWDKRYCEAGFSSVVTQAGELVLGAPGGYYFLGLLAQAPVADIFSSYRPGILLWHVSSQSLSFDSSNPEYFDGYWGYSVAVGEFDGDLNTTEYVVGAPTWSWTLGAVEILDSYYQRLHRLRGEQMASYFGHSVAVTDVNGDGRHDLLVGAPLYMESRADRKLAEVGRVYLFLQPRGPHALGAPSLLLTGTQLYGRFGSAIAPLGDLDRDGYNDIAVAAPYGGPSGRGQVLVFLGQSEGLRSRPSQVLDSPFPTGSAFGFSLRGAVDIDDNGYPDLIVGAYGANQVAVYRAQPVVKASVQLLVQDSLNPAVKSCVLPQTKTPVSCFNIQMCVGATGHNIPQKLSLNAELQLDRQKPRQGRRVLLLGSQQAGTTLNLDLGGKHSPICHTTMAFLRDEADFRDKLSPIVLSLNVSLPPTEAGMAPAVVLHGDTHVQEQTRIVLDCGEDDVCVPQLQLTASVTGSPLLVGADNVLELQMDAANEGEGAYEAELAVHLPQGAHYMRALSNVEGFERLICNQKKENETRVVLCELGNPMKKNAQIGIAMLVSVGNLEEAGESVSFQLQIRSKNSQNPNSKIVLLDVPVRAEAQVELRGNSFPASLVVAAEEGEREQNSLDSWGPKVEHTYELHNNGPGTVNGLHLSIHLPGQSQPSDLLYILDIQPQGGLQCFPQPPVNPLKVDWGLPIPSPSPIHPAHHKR
Chain of Integrin alpha-IIb/beta-3 (P08514 891-1039 limits assumed): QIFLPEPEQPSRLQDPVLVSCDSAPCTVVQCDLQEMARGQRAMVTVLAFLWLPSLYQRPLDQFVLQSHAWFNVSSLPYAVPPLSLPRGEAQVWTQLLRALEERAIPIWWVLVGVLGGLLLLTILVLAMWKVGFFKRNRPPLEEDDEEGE

Row | SMILES | IC50
1 | CC(C)(COC(=O)N1CCC2(CC1)CC(=O)N(c1ccc(C(=N)N)cc1)C2)C(=O)O [2-(4-Carbamimidoyl-phenyl)-3-oxo-2,8-diaza-spiro[4.5]decane-8-carboxylic acid 2-carboxy-2-methyl-propyl ester] | 3600 nM
2 | CCCCOC(=O)N[C@@H](CCC(=O)N1CCC2(CC1)CC(=O)N(c1ccc(C(=N)N)cc1)C2=O)C(=O)O [2-Butoxycarbonylamino-5-[2-(4-carbamimidoyl-phenyl)-1,3-dioxo-2,8-diaza-spiro[4.5]dec-8-yl]-5-oxo-pentanoic acid] | 270 nM
3 | CCCCOC(=O)N[C@@H](CCC(=O)N1CCC2(CC1)CCN(c1ccc(C(=N)N)cc1)C2=O)C(=O)O [2-Butoxycarbonylamino-5-[2-(4-carbamimidoyl-phenyl)-1-oxo-2,8-diaza-spiro[4.5]dec-8-yl]-5-oxo-pentanoic acid] | 66 nM
4 | CCCCOC(=O)N[C@@H](CCC(=O)N1CCC2(CC1)C(=O)N(c1ccc(C(=N)N)cc1)C(=O)N2C)C(=O)O [2-Butoxycarbonylamino-5-[3-(4-carbamimidoyl-phenyl)-1-methyl-2,4-dioxo-1,3,8-triaza-spiro[4.5]dec-8-yl]-5-oxo-pentanoic acid] | 65 nM
5 | N=C(N)c1ccc(N2CCC3(CCN(C(=O)CC(=O)O)CC3)C2=O)cc1 [3-[2-(4-Carbamimidoyl-phenyl)-1-oxo-2,8-diaza-spiro[4.5]dec-8-yl]-3-oxo-propionic acid] | 12500 nM
6 | N=C(N)c1ccc(N2CC3(CCN(C(=O)CC(=O)O)CC3)CC2=O)cc1 [3-[2-(4-Carbamimidoyl-phenyl)-3-oxo-2,8-diaza-spiro[4.5]dec-8-yl]-3-oxo-propionic acid] | 7400 nM
7 | N=C(N)c1ccc(N2C(=O)CC3(CCN(C(=O)NCCC(=O)O)CC3)C2=O)cc1 [3-{[2-(4-Carbamimidoyl-phenyl)-1,3-dioxo-2,8-diaza-spiro[4.5]decane-8-carbonyl]-amino}-propionic acid] | 640 nM
8 | CN1C(=O)N(c2ccc(C(=N)N)cc2)C(=O)C12CCN(C(=O)NCCC(=O)O)CC2 [3-{[3-(4-Carbamimidoyl-phenyl)-1-methyl-2,4-dioxo-1,3,8-triaza-spiro[4.5]decane-8-carbonyl]-amino}-propionic acid] | 222 nM
9 | N=C(N)c1ccc(N2C(=O)NC3(CCN(C(=O)NCCC(=O)O)CC3)C2=O)cc1 [3-{[3-(4-Carbamimidoyl-phenyl)-2,4-dioxo-1,3,8-triaza-spiro[4.5]decane-8-carbonyl]-amino}-propionic acid] | 468 nM

More lines, now with the values ahead:

Row | IC50 | SMILES
10 | 66 nM | Cc1ccc(S(=O)(=O)N[C@@H](CNC(=O)N2CCC3(CC2)CCN(c2ccc(C(=N)N)cc2)C3=O)C(=O)O)cc1 [3-{[2-(4-Carbamimidoyl-phenyl)-1-oxo-2,8-diaza-spiro[4.5]decane-8-carbonyl]-amino}-2-(toluene-4-sulfonylamino)-propionic acid]
11 | 122 nM | CC(CC(=O)O)NC(=O)N1CCC2(CC1)CCN(c1ccc(C(=N)N)cc1)C2=O (centres undefined) [3-{[2-(4-Carbamimidoyl-phenyl)-1-oxo-2,8-diaza-spiro[4.5]decane-8-carbonyl]-amino}-butyric acid]
12 | 171 nM | N=C(N)c1ccc(N2CC3(CCN(C(=O)NCCC(=O)O)CC3)CC2=O)cc1 [3-{[2-(4-Carbamimidoyl-phenyl)-3-oxo-2,8-diaza-spiro[4.5]decane-8-carbonyl]-amino}-propionic acid]
13 | 103 nM | CN1C(=O)N(c2ccc(C(=N)N)cc2)C(=O)C12CCN(C(=O)NC(CC(=O)O)c1ccccc1)CC2 (centres undefined) [3-{[3-(4-Carbamimidoyl-phenyl)-1-methyl-2,4-dioxo-1,3,8-triaza-spiro[4.5]decane-8-carbonyl]-amino}-3-phenyl-propionic acid]
14 | 212 nM | CN1C(=O)N(c2ccc(C(=N)N)cc2)CC12CCN(C(=O)NCCC(=O)O)CC2 [3-{[3-(4-Carbamimidoyl-phenyl)-1-methyl-2-oxo-1,3,8-triaza-spiro[4.5]decane-8-carbonyl]-amino}-propionic acid]
